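Cells were grown in 96-well plates and exposed to each compound for 48 hours at five concentrations; endpoints were interpolated linearly between bracketing concentrations, or set to the highest concentration if not reached. Definition used: TGI = concentration required for complete inhibition of growth.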 Where a SMILES comes first, the peptide text is derived from it. [ ]: non-standard residue; d: D form. The star is where a group is joined. X28 = COC1=CC(=O)N(C(=O)[C@@H](O*)C(C)C)[C@H]1Cc1ccccc1; NMeL = CN[C@@H](CC(C)C)C(=O)O; Hexanoyl = CCCCCC(=O)*
Legend:
Assay in all cases: inhibition of tumour cell growth, NCI panel, 48 h
[1] = tested on: NCI-H522 lung
[2] = tested on: BT-549 breast
[3] = tested on: SF-268 CNS
[4] = tested on: SW-620 colon
[5] = tested on: NCI-H226 lung
[6] = tested on: MALME-3M melanoma
[7] = tested on: RPMI-8226 leukemia
[8] = tested on: CAKI-1 renal
[9] = tested on: PC-3 prostate
[10] = tested on: TK-10 renal
[11] = tested on: SF-295 CNS
[12] = tested on: SF-539 CNS
[13] = tested on: A549 NSCLC
[14] = tested on: SNB-19 CNS
[15] = tested on: HCT-116 colon
[16] = tested on: UO-31 renal
[17] = tested on: HOP-62 NSCLC
[18] = tested on: K-562 leukemia

Structure (SMILES) | TGI [1] [µM] | TGI [2] [µM] | TGI [3] [µM] | TGI [4] [µM] | TGI [5] [µM] | TGI [6] [µM] | TGI [7] [µM] | TGI [8] [µM] | TGI [9] [µM] | TGI [10] [µM] | TGI [11] [µM] | TGI [12] [µM] | TGI [13] [µM] | TGI [14] [µM] | TGI [15] [µM] | TGI [16] [µM] | TGI [17] [µM] | TGI [18] [µM]
CC(C)(C)NCC(O)COc1cccc2[nH]c(C#N)cc12 (stereo not given) | > 100 | > 100 | > 100 | > 100 | > 100 | > 100 | > 100 | > 100 | > 100 | > 100 | > 100 | > 100 | > 100 | > 100 | > 100 | > 100 | > 100 | –
CCc1nnc2sc(-c3ccc(-c4ccc(Cl)cc4Cl)o3)nn12 | > 100 | > 100 | > 100 | > 100 | > 100 | > 100 | > 100 | > 100 | > 100 | > 100 | > 100 | – | > 100 | > 100 | > 100 | > 100 | > 100 | > 100
CC1OC(OC2C(CO)OC(O[C@H]3CC[C@@]4(C)C(=CC[C@H]5[C@@H]6C[C@@H]7O[C@](O)(CC[C@@H](C)COC8OC(CO)C(O)C(O)C8O)[C@@H](C)[C@@H]7[C@@]6(C)CC[C@@H]54)C3)C(OC3OC(C)C(O)C(O)C3O)C2O)C(O)C(O)C1O (stereo not given in full) | 4.41 | 11.1 | 8.33 | 2.97 | – | 4.1 | 10.2 | 8.61 | 5.51 | 22.8 | 11.8 | 4.21 | 3.16 | 6.39 | 4.76 | 8.39 | 4.74 | > 43.4
Cc1nn(-c2ccccc2)c(C)c1/C=N/NC(=O)c1sc(=S)n(-c2ccc(Cl)cc2)c1N | – | > 100 | > 100 | > 100 | > 100 | > 100 | 7.73 | 9.68 | > 100 | 14.4 | 5.37 | > 100 | > 100 | > 100 | > 100 | 55.7 | > 100 | > 100
CC(C)(C)[C@@H]1NC(=O)CN1C(=O)OCc1ccccc1 | > 100 | > 100 | > 100 | > 100 | > 100 | > 100 | > 100 | – | > 100 | > 100 | > 100 | > 100 | > 100 | > 100 | > 100 | > 100 | > 100 | > 100
NS(=O)(=O)c1ccc(CNC(=S)NC(=O)Nc2ccc(Cl)c(Cl)c2)cc1 | 34.2 | 34.7 | 52.8 | 44.7 | – | 57.1 | 41.6 | – | 25.2 | > 100 | 33.2 | 41.5 | 65.5 | 44.3 | 32.6 | 32.5 | 38.3 | 39.5
c1ccc(COc2nc3ccc(C45CC6CC(CC(C6)C4)C5)cc3[nH]2)cc1 | 13.9 | > 100 | > 100 | > 100 | 46.2 | 86.1 | 30.9 | > 100 | > 100 | > 72.5 | > 100 | – | > 100 | > 100 | > 83.5 | > 64.7 | > 74.8 | > 100
CCOc1ccc(N=NC2C(=O)N(C(=O)CC(=O)Nc3ccc(Cl)cc3)N=C2C)cc1 (stereo not given) | > 100 | > 100 | > 100 | > 100 | > 100 | > 100 | > 100 | > 100 | > 100 | > 100 | > 100 | > 100 | > 100 | – | > 100 | > 100 | > 100 | –
COC(=O)CP1(=O)OC2C(C3CCC2(C)C3(C)C)N1c1cc(C(F)(F)F)cc(C(F)(F)F)c1 (stereo not given) | – | 71.8 | 82.1 | 88.3 | 71.7 | 58.1 | 42.5 | 83.1 | 74.9 | 75.2 | 48.2 | 45.8 | > 100 | > 100 | 40.7 | > 100 | 85.7 | 68.3
CCCCCC(=O)N[C@H](C(=O)N[C@H](C(=O)N(C)[C@@H](CC(C)C)C(=O)N1CCC[C@H]1C(=O)N1CCC[C@H]1C(=O)O[C@H](C(=O)N1C(=O)C=C(OC)[C@@H]1Cc1ccccc1)C(C)C)C(C)C)C(C)C (Hexanoyl-VV[NMeL]PP-X28) | > 100 | > 100 | > 100 | > 100 | > 100 | > 100 | > 100 | > 100 | > 80.5 | > 100 | > 100 | > 100 | > 100 | > 42.1 | > 100 | – | > 100 | > 100
COc1cc(/C=C\c2ccc(SC)cc2)cc(OC)c1OC | 0.0369 | > 100 | 56.1 | > 100 | – | > 100 | 25.2 | – | > 100 | > 100 | < 0.0204 | 0.0364 | > 100 | – | > 26.3 | 45.3 | > 76.3 | > 46.8
CCOC(=O)c1cc(-c2ccc(OC)c(OC)c2)cn1C | > 10 | > 10 | > 10 | – | > 10 | > 10 | > 10 | > 10 | > 10 | > 10 | > 10 | > 10 | > 10 | > 10 | > 10 | > 10 | > 10 | > 10
COc1cccc(-n2nnc3c(N)nc(N)nc32)c1 | > 100 | > 100 | > 100 | > 100 | > 100 | > 100 | > 100 | > 100 | > 100 | > 100 | > 100 | > 100 | > 100 | > 100 | > 100 | – | > 100 | > 100
COC(=O)CCCc1ccc2c(c1)CCC2 | > 100 | > 100 | > 100 | > 100 | > 100 | > 100 | > 100 | > 100 | > 100 | > 100 | > 100 | > 100 | > 100 | > 100 | > 100 | > 100 | > 100 | –
O=[N+]([O-])c1ccccc1S(=O)(=O)N1CCCc2cc(Cl)ccc21 | – | > 100 | > 100 | > 100 | > 100 | > 100 | > 100 | > 100 | > 100 | > 100 | > 100 | 97.2 | > 100 | > 100 | > 100 | > 100 | > 100 | > 75.2
Cc1cc2nc3c(C#N)c(-c4ccccc4)/c(=C\Nc4cccc(C(F)(F)F)c4)c(=O)n3c2cc1C | 93.7 | > 100 | > 100 | > 100 | > 100 | > 100 | > 100 | > 100 | > 100 | > 100 | > 100 | > 100 | > 100 | > 100 | > 100 | > 100 | 66.9 | –
CCN(CC)P1(=S)Oc2ccc3ccccc3c2-c2c(ccc3ccccc23)O1 | > 100 | > 100 | – | > 100 | > 100 | > 100 | > 100 | > 100 | > 100 | > 100 | > 100 | > 100 | > 100 | > 100 | > 100 | > 100 | > 100 | > 100
Cc1ccc(S(=O)/C=C(\NC(=O)OCc2ccccc2)C(F)(F)F)cc1 (stereo not given) | > 100 | > 100 | – | > 100 | > 100 | > 100 | – | > 100 | > 100 | > 100 | > 100 | 92.9 | > 100 | > 100 | > 100 | 73.4 | – | > 100
COCOc1cc(OC)ccc1C=O | > 100 | > 100 | > 100 | > 100 | > 100 | > 100 | – | > 100 | 88.8 | > 100 | > 100 | 61.9 | > 100 | > 100 | > 100 | > 100 | > 100 | > 100
COC(=O)c1nc2c(C)c(O)c(O)c([C@H](C)CCC=C(C)C)c2o1 | – | > 100 | > 100 | > 100 | 34.2 | > 100 | > 100 | 50.9 | 93.5 | > 100 | 47 | 35.7 | 57.1 | > 100 | 41.5 | 41.5 | 67.7 | > 100
CCOC(=O)Nc1ccc(S(=O)(=O)Nc2ccc(Br)cc2)cc1 | > 100 | > 100 | > 100 | > 100 | – | > 100 | > 100 | > 100 | > 100 | > 100 | 97.8 | 35.4 | > 100 | > 100 | > 100 | > 100 | 86.7 | 34.4
COc1ccccc1NC(=S)N/N=C(/c1ccccc1)c1ccccn1 | 17.3 | 23 | 20.4 | 18.4 | 8.64 | 17.3 | 6.14 | 10.2 | 16.7 | 18.3 | 7.17 | 12 | 16.3 | 21.8 | 14.7 | 14.1 | 12.6 | –
Fc1ccc(C(=NCc2ccccc2)N2CCOCC2)cc1 | – | > 100 | > 100 | > 100 | > 100 | > 100 | > 100 | > 100 | > 100 | > 100 | > 100 | > 100 | – | > 100 | > 100 | > 100 | > 100 | > 100
COc1cc(O)c(C(=O)/C=C/c2ccc(O)cc2)cc1Oc1ccc(C(=O)/C=C/c2ccc(O)cc2)c(O)c1 | 6.22 | 9.19 | 14.2 | 11 | – | 6.37 | 6.49 | 9.69 | 19.8 | 11.3 | 10.4 | 5.51 | 15.3 | 25.1 | 4 | 7.06 | 9.17 | 10.7
Cc1cn2c(/C=C3/C(=O)Nc4ccccc43)c(-c3ccccc3)nc2s1 | > 100 | > 100 | > 100 | > 100 | – | > 100 | > 100 | > 100 | > 100 | 51.2 | > 100 | 41.7 | > 100 | 55.4 | > 100 | 61.2 | > 100 | > 100
CC(C)=NN/C(=N\S(=O)(=O)c1cc(Cl)c(Oc2ccc([N+](=O)[O-])cc2Cl)c(Cl)c1)Nc1ccc(Cl)cc1 | > 100 | > 100 | > 100 | > 100 | > 100 | > 100 | > 100 | > 100 | > 100 | > 100 | > 100 | – | > 100 | > 100 | > 100 | > 100 | > 100 | > 100

Reference: PubChem BioAssay (NCI)
